Each molecule was assayed against T1, human PAH with the R408W mutation (Homo sapiens, UniProt P00439, R408W) (assay: Cell Based Phenylalanine Flux Assay). Details: A375 cells expressing R408W PAH; 24 hrs with compound, then 20 µM sepiapterin and 800 µM 13C9,15N-Phenylalanine for 4 hours; 13C-Tyrosine by LC-MS; average where tested multiple times; read-out: AC50.
T1 construct: expressed in transfected cells
T1 sequence (P00439 1-452 R408W): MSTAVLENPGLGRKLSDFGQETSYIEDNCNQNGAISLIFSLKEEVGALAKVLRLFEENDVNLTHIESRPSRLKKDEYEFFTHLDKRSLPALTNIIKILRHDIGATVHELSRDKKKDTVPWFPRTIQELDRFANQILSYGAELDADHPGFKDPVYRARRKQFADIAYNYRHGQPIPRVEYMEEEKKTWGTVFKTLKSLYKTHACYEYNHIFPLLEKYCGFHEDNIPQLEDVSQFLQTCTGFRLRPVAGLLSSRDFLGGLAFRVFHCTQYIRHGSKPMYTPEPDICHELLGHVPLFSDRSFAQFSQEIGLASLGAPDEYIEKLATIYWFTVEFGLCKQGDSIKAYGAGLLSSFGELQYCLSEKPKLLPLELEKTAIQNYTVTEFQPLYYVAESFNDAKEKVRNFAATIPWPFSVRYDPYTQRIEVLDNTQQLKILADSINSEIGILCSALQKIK
`CC(C)(O)c1ncc(C(=O)N2CCc3[nH]cnc3[C@H]2c2cc3cccc(Cl)n3n2)o1` (single isomer, unassigned) showed an AC50 of 1 to 5 µM. `Cn1nc(C(F)F)nc1C(=O)N1CCc2[nH]cnc2C1c1cc2cccc(C(F)(F)F)n2n1` (stereo not shown) was tested, and the AC50 was 1 to 5 µM. For `Cc1nnc(N2CCc3[nH]cnc3C2c2cc3c(C(F)(F)F)cccn3n2)o1` (stereo not shown), the AC50 was 1 to 5 µM. `Fc1cccc2cc(C3c4nc[nH]c4CCN3c3nnc(C(F)(F)F)o3)nn12` (stereo not shown) was tested, and the AC50 was 1 to 5 µM. `CC(C)(C)c1nnc(N2CCc3[nH]cnc3C2c2cc3c(C(F)(F)F)cccn3n2)o1` (stereo not shown) was tested, and the AC50 was 1 to 5 µM. Work on `Clc1cccc2cc(C3c4nc[nH]c4CCN3c3nnc(-c4cnccn4)o3)nn12` (stereo not shown) yielded an AC50 of 1 to 5 µM. In the case of `COc1cccn2nc(C3c4nc[nH]c4CCN3C(=O)c3nnc(-c4ncccc4F)o3)cc12` (stereo not shown), the AC50 is reported as 1 to 5 µM.

Same assay, conditions: A375 cells expressing human PAH R408W; 24 hrs compound incubation; 13C-Tyrosine by LC-MS; average where tested multiple times; read-out: AC50
`O=C(c1ncco1)N1CCc2[nH]cnc2[C@@H]1c1cc2c(C(F)F)cccn2n1` [Example 2077, (R)-(4-(4-(difluoromethyl)pyrazolo[1,5-a]pyridin-2-yl)-1,4,6,7-tetrahydro-5H-imidazo[4,5-c]pyridin-5-yl)(oxazol-2-yl)methanone] gave an AC50 greater than 5 µM. With `COc1cccn2nc([C@@H]3c4nc[nH]c4CCN3c3ccc(C(F)(F)F)cn3)cc12` [Example 2247, (S)-4-(4-methoxypyrazolo[1,5-a]pyridin-2-yl)-5-(5-(trifluoromethyl)pyridin-2-yl)-4,5,6,7-tetrahydro-1H-imidazo[4,5-c]pyridine] the AC50 was less than 0.5 µM. In the case of `Cc1cc(-c2nnc(C(=O)N3CCc4[nH]cnc4[C@@H]3c3cc4c(C5CC5)cccn4n3)o2)nn1C` [Example 1932, (R)-(4-(4-cyclopropylpyrazolo[1,5-a]pyridin-2-yl)-1,4,6,7-tetrahydro-5H-imidazo[4,5-c]pyridin-5-yl)(5-(1,5-dimethyl-1H-pyrazol-3-yl)-1,3,4-oxadiazol-2-yl)methanone], the AC50 is reported as greater than 5 µM. Molecule `FC(F)(F)c1cccn2nc([C@@H]3c4nc[nH]c4CCN3c3nnc(-c4cnccn4)o3)cc12` [Example 2510, (S)-2-(pyrazin-2-yl)-5-(4-(4-(trifluoromethyl)pyrazolo[1,5-a]pyridin-2-yl)-1,4,6,7-tetrahydro-5H-imidazo[4,5-c]pyridin-5-yl)-1,3,4-oxadiazole] has an AC50 of 1 to 5 µM. For `FC(F)c1cccn2nc([C@H]3c4nc[nH]c4CCN3c3ccc(C(F)(F)F)cn3)cc12` [Example 1917, (R)-4-(4-(difluoromethyl)pyrazolo[1,5-a]pyridin-2-yl)-5-(5-(trifluoromethyl)pyridin-2-yl)-4,5,6,7-tetrahydro-1H-imidazo[4,5-c]pyridine], the AC50 was greater than 5 µM. In the case of `Cc1cccn2nc([C@H]3c4nc[nH]c4CCN3C(=O)c3nnc(-c4ccn(C)n4)s3)cc12` [Example 1999, (R)-(5-(1-methyl-1H-pyrazol-3-yl)-1,3,4-thiadiazol-2-yl)(4-(4-methylpyrazolo[1,5-a]pyridin-2-yl)-1,4,6,7-tetrahydro-5H-imidazo[4,5-c]pyridin-5-yl)methanone], the AC50 is reported as greater than 5 µM. With `COc1cccn2nc([C@H]3c4nc[nH]c4CCN3c3nnc(C(F)F)o3)cc12` [Example 2150, (R)-2-(difluoromethyl)-5-(4-(4-methoxypyrazolo[1,5-a]pyridin-2-yl)-1,4,6,7-tetrahydro-5H-imidazo[4,5-c]pyridin-5-yl)-1,3,4-oxadiazole] the AC50 was greater than 5 µM.

Same assay, conditions: A375 cells expressing human R408W PAH; 24 hrs compound incubation; 13C-Tyrosine by LC-MS; average where tested multiple times; read-out: AC50
`O=C(c1nnc(N2CCC(F)CC2)o1)N1CCc2[nH]cnc2[C@@H]1c1cc2c(F)cccn2n1` [Example 1015, (R)-(5-(4-fluoropiperidin-1-yl)-1,3,4-oxadiazol-2-yl)(4-(4-fluoropyrazolo[1,5-a]pyridin-2-yl)-6,7-dihydro-1H-imidazo[4,5-c]pyridin-5(4H)-yl)methanone] gave an AC50 greater than 5 µM. `Cc1cccc(-c2nnc(C(=O)N3CCc4[nH]cnc4[C@@H]3c3cc4cccc(C(F)(F)F)n4n3)o2)n1` [Example 1401, (R)-(5-(6-methylpyridin-2-yl)-1,3,4-oxadiazol-2-yl)(4-(7-(trifluoromethyl)pyrazolo[1,5-a]pyridin-2-yl)-6,7-dihydro-1H-imidazo[4,5-c]pyridin-5(4H)-yl)methanone] showed an AC50 of 1 to 5 µM. `O=C(c1nnc(-c2cnn(C(F)F)c2)o1)N1CCc2[nH]cnc2[C@@H]1c1cc2cccc(C(F)(F)F)n2n1` [Example 1041, (R)-(5-(1-(difluoromethyl)-1H-pyrazol-4-yl)-1,3,4-oxadiazol-2-yl)(4-(7-(trifluoromethyl)pyrazolo[1,5-a]pyridin-2-yl)-6,7-dihydro-1H-imidazo[4,5-c]pyridin-5(4H)-yl)methanone] was tested, and the AC50 was greater than 5 µM. Work on `Cc1cccn2nc([C@@H]3c4nc[nH]c4CCN3C(=O)c3nnc(-c4ccn(C)n4)o3)cc12` [Example 743, (S)-(5-(1-methyl-1H-pyrazol-3-yl)-1,3,4-oxadiazol-2-yl)(4-(4-methylpyrazolo[1,5-a]pyridin-2-yl)-6,7-dihydro-1H-imidazo[4,5-c]pyridin-5(4H)-yl)methanone] yielded an AC50 of less than 0.5 µM. `O=C(c1nnc(-c2ncccn2)o1)N1CCc2[nH]cnc2[C@H]1c1cc2c(Cl)cccn2n1` [Example 1411, (S)-(4-(4-chloropyrazolo[1,5-a]pyridin-2-yl)-6,7-dihydro-1H-imidazo[4,5-c]pyridin-5(4H)-yl)(5-(pyrimidin-2-yl)-1,3,4-oxadiazol-2-yl)methanone] showed an AC50 of less than 0.5 µM. With `O=C(c1nnc(-c2cnn(C(F)(F)F)c2)o1)N1CCc2[nH]cnc2[C@@H]1c1cc2cccc(C(F)F)n2n1` [Example 1503, (R)-(4-(7-(difluoromethyl)pyrazolo[1,5-a]pyridin-2-yl)-6,7-dihydro-1H-imidazo-[4,5-c]pyridin-5(4H)-yl)(5-(1-(trifluoromethyl)-1H-pyrazol-4-yl)-1,3,4-oxadiazol-2-yl)methanone] the AC50 was greater than 5 µM. `CC(C)(F)c1nnc(C(=O)N2CCc3[nH]cnc3[C@H]2c2cc3cccc(F)n3n2)o1` [Example 987, (S)-(5-(2-fluoropropan-2-yl)-1,3,4-oxadiazol-2-yl)(4-(7-fluoropyrazolo[1,5-a]pyridin-2-yl)-6,7-dihydro-1H-imidazo[4,5-c]pyridin-5(4H)-yl)methanone] showed an AC50 of 0.5 to 1 µM. `O=C(c1nnc(-c2ncccn2)o1)N1CCc2[nH]cnc2[C@@H]1c1cc2c(Cl)cccn2n1` [Example 1410, (R)-(4-(4-chloropyrazolo[1,5-a]pyridin-2-yl)-6,7-dihydro-1H-imidazo[4,5-c]pyridin-5(4H)-yl)(5-(pyrimidin-2-yl)-1,3,4-oxadiazol-2-yl)methanone] showed an AC50 of 1 to 5 µM. In the case of `CC(C)(O)c1nc(C(F)F)c(C(=O)N2CCc3[nH]cnc3[C@H]2c2cc3c(F)cccn3n2)o1` [Example 714, (S)-(4-(difluoromethyl)-2-(2-hydroxypropan-2-yl)oxazol-5-yl)(4-(4-fluoropyrazolo[1,5-a]pyridin-2-yl)-6,7-dihydro-1H-imidazo[4,5-c]pyridin-5(4H)-yl)methanone], the AC50 is reported as less than 0.5 µM. `O=C(c1nnc(-c2cccnc2)o1)N1CCc2[nH]cnc2[C@@H]1c1cc2ccccn2n1` [Example 1347, (R)-(4-(pyrazolo[1,5-a]pyridin-2-yl)-6,7-dihydro-1H-imidazo[4,5-c]pyridin-5(4H)-yl)(5-(pyridin-3-yl)-1,3,4-oxadiazol-2-yl)methanone] showed an AC50 of 1 to 5 µM. With `c1ccc(-c2nnc(N3CCc4[nH]cnc4[C@H]3c3cc4ccccn4n3)o2)nc1` [Example 1291, (S)-2-(4-(pyrazolo[1,5-a]pyridin-2-yl)-6,7-dihydro-1H-imidazo[4,5-c]pyridin-5(4H)-yl)-5-(pyridin-2-yl)-1,3,4-oxadiazole] the AC50 was 0.5 to 1 µM.

Source: patent US20230365592A1 (Agios Pharmaceuticals, Inc., priority 2022, published 2023)
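Also: after compound treatment, cells received sepiapterin plus isotope-labelled Phenylalanine for 4 hours, then labelled Tyrosine in the medium was quantified, 10-point 2-fold dilution series run in duplicate.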
